Experimental data taken from patent US6903130B1, “Pyrrolidineacetamide derivative alone or in combination for treatment of cns disorders” (UCB S.A., priority 1999, dated 2005).

Legend:
amygdala-kindled rats = experiment: Rotarod test in amygdala-kindled rats
Procedure: Levetiracetam and valproate, in a dose-volume of 5 ml/kg body weight, were administered intraperitoneally 60 and 30 minutes, respectively, before the induction of kindling or the measurement of rotarod performance. Levetiracetam ([…]) and sodium valproate (50, 100, 150, 200 and 300 mg/kg) were both dissolved in 0.9% NaCl to give solutions of pH 5.9 and 6.3, respectively. Control rats received an equivalent dose-volume of the appropriate vehicle.
The amygdala-kindled rats (n=8) were also tested on a rotating rod. The animals were pretreated with i.p. administrations of levetiracetam and valproate 60 and 30 minutes, respectively, before testing, Only animals that were unable to remain on the rod after three subsequent 1-minute attempts were considered as having an impaired performance. Results were analyzed as described in example 1.

[1] = test system: rats in which hyperactivity has been induced using the DEX-CDP mixture; experiment: Y maze test, hyperactivity induced by DEX-CDP mixture (Example 1); format: in vivo, rat; details: for Number of arms visited: median; for Effect on hyperactivity induced by DEX-CDP (in words): hyperactive rats; for Effect on hyperactivity induced by DEX-CDP (in words) / Effect of the compound per se on activity of non-hyperactive control (in words): i.p.; for Effect of the compound per se on activity of non-hyperactive control (in words): non-hyperactive control rats
From the text: An increase in motor activity is a frequent symptom of manic disorders and as a consequence, it is often used as a model of mania in laboratory animals. […] Further, not all activity tests are suitable for observing reproducible hyperactivity.
Hyperactivity induced in rodents tested in a symmetrical v maze by a mixture of dexamphetamine and chlordiazepoxide (DEX-CDP) has been used by a number of researchers to study the effect of lithium (Cox C. et al., “Lithium attenuates “manic” activity in rats” Nature (1971), vol. 232 p 336-338—Vale A. L. and Ratcliffe F., “Effect of lithium administration on rat brain 5-hydroxyindole levels in a possible animal model of mania” Psychopharamacol. (1987), vol.91 p 352-355), or more recently the effect of the antiepiteptic “Valproate” (Cao B. J. and Peng N. A., “Magnesium valproate attenuates hyperactivity induced by dexamphetamine-chlordiazepoxide mixture in rodents” Eur. J. Pharmacol. (1993), vol. 237, p 177-181).
Lithium and valproate were also tested and used as reference compounds.
The animals used were male Sprague-Dawley rats (origin: OFA, IFFA CREDO, Belgium) weighing between 210 and 290 grams. They were placed in stainless steel cages in groups of 8. The day prior to the experiment, they were placed in macrolon cages (4 animals per cage: 38×27×15 centimeters (cm)) with the floor covered with sawdust. The cages were placed in an animal holding chamber provided with air conditioning, illuminated from 0600 hrs to 1800 hrs. Food and water were available “ad libitum”.
The apparatus used was a Y maze (each arm being 40 cm long and 15 cm wide with 35 cm walls) constructed from grey Plexiglass, located in a faintly illuminated room (Less than 5 Lux at ground level) and used to measure the rats' activity. The activity was estimated by recording the number of entries into the arms of the maze over a five-minute period. A video camera was positioned at a height of one meter above the apparatus and connected to a monitor located in an adjacent room in which an experimenter counted the number of entries into the arms.
The injection of different compounds into the rats was performed under the following conditions. 12.5 mg/kg of chlordiazepoxide and 1.18 mg/kg of D-amphetamine sulfate were dissolved in a saline solution (0.9%) and administered simultaneously by subcutaneous injection 35 minutes before the test in a volume of 1 ml/kg. 17 and 54 mg/kg of levetiracetam were dissolved in a saline aqueous solution (0.9%) and injected intraperitoneally 30 minutes before the test (table 4). 50, 100 and 200 mg/kg of sodium valproate were dissolved in an aqueous saline solution (0.9%) and injected intraperitoneally 15 minutes before the test (table 2). 2 and 4 milliequivalents (meq) of […] of lithium chloride were dissolved in a saline solution (0.9%) and injected intraperitoneally 215 minutes before the test (table 1). The test drugs were injected in a volume of 5 ml/kg.
The effects of the different drugs were studied separately. In each experiment, the animals were placed in different groups ([…]) in a random fashion. During the test, each rat was placed in the center of the apparatus and the number of visits into the arms was recorded as an activity index.
For the results to be properly statistically analyzed, they were expressed as median with the first and third quartile. General comparisons of the statistics were carried out using a Kruskal-Wallis test for the controls and the effect of the compound per se. This test was also used to compare the effect of the (DEX-CDP) mixture, and the effect of the compounds against the hyperactivity induced by the (DEX-CDP) mixture.

Compound | impairment of rotarod performance (in words) (amygdala-kindled rats; levetiracetam alone 108, 170 and 540 mg/kg i.p.) | Number of arms visited ([1]; DEX-CDP mixture + levetiracetam 17 mg/kg i.p.) | Number of arms visited ([1]; DEX-CDP mixture + levetiracetam 54 mg/kg i.p.) | Effect on hyperactivity induced by DEX-CDP (in words) [1] | Effect on hyperactivity induced by DEX-CDP (in words) ([1]; listed as levetiracetam) | Number of arms visited ([1]; levetiracetam 17 mg/kg i.p. alone, no mixture) | Number of arms visited ([1]; levetiracetam 54 mg/kg i.p. alone, no mixture) | Effect of the compound per se on activity of non-hyperactive control (in words) [1] | Impairment in the performance within the rotarod test (amygdala-kindled rats; valproate 197 mg/kg + saline (treatment protecting 50% of the rats)) | Number of arms visited ([1]; DEX-CDP mixture + sodium valproate 50 mg/kg i.p.) | Number of arms visited ([1]; DEX-CDP mixture + sodium valproate 100 mg/kg i.p.) | Number of arms visited ([1]; DEX-CDP mixture + sodium valproate 200 mg/kg i.p.) | Number of arms visited ([1]; sodium valproate 50 mg/kg i.p. alone, no mixture) | Number of arms visited ([1]; sodium valproate 100 mg/kg i.p. alone, no mixture) | Number of arms visited ([1]; sodium valproate 200 mg/kg i.p. alone, no mixture)
CC[C@@H](C(N)=O)N1CCCC1=O [Levetiracetam, (S)-(−)α-ethyl-2-oxo-1-pyrrolidineacetamide] | None of the three doses of levetiracetam tested (108, 170 and 540 mg/kg) impaired the performance | 36 | 26 | significantly counteracted the hyperactivity induced by DEX-CDP at a dose of 54 mg/kg | normalization to the activity level of the non-hyperactive control rats | 31 | 28 | only a slight hyperactivity at a dose of 17 mg/kg | – | – | – | – | – | – | –
CCCC(CCC)C(=O)[O-].[Na+] [Valproate, sodium valproate] | – | – | – | significantly counteracted hyperactivity at a dose of 200 mg/kg | – | – | – | strong dose dependent hyperactivity | 46% | 38 | 39 | 20 | 28 | 34 | 40
